Measured values published in patent US20170348258A1, “3-Amino Benzamide Derivative Serving As B-Lactam Auxiliary Antibiotic, Preparation Method and Use Thereof” (THE HONG KONG POLYTECHNIC UNIVERSITY, priority 2014, published 2017).

Assays:
S. aureus FtsZ [1] = biological target: T1, S. aureus FtsZ (Staphylococcus aureus, UniProt P0A031); assay: Transmission electron microscopy of FtsZ polymer morphology; type: biochemical; settings: 100 μM compound, GTP 1 mM, 37° C. 15 minutes
T1 construct: inferred from capture on a nickel chelating column and imidazole elution; made in house; host or cells: E. coli BL21
T1 sequence (P0A031 1-390): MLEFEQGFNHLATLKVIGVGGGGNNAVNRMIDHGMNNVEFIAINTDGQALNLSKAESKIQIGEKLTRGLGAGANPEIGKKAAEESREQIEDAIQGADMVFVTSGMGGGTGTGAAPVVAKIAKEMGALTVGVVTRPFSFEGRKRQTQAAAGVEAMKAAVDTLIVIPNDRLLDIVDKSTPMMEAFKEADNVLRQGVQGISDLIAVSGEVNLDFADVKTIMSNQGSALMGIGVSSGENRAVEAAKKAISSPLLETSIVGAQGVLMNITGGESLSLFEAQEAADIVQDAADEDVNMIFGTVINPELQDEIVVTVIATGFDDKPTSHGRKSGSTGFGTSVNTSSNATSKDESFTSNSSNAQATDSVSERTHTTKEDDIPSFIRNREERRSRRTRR
Experimental: TEM provides a direct observation of FtsZ polymer morphology. Two promising compounds F332 and F361 were chosen for testing. S. aureus FtsZ ([…]) was incubated with the compounds at different concentrations in 50 mM MOPS buffer (pH 6.5) at 25° C. for 10 minutes. The control contained 1% DMSO only. KCl (final concentration: 50 mM) and MgCl2 (final concentration: 5 mM) were then added to the mixture. The mixture was incubated with GTP (final concentration: 1 mM) at 37° C. for 15 minutes. 10 μL reaction mixtures were applied on a glow-discharged Formvar carbon-coated copper grid (400 meshes) at 25° C. for 10 minutes. 10 μL of 0.5% phosphotungistic acid (PTA) was applied on the copper grid in order to negatively stain the proteins. The copper grid was allowed to air dry overnight.

S. aureus FtsZ [2] = biological target: T1, S. aureus FtsZ; assay: GTPase activity assay; type: biochemical; settings: FtsZ 7.5 μM, GTP 500 μM, 37° C. 30 minutes
Experimental: The GTPase activity of S. aureus FtsZ was determined in a 96-well microplate using a CytoPhos™ phosphate assay Biochem Kit™ (Cytoskeleton, USA) which measured the concentration of inorganic phosphate released during the hydrolysis of GTP. Recombinant S. aureus FtsZ (7.5 μM) was incubated with serial dilutions of the compounds in 50 mM MOPS buffer (pH 6.5) at 25° C. for 10 minutes. The control contained 1% DMSO only. KCl (final concentration: 200 mM) and MgCl2 (final concentration: 5 mM) were then added to the mixture. The mixture was incubated with GTP (final concentration: 500 μM) at 37° C. for 30 minutes. The insoluble polymer was removed by centrifugation at 13,500 rpm at room temperature for 1 minute. 80 μL supernatant was transferred to a well of a 96-well microplate and incubated with 120 μL of Cytophos reagent at room temperature for 10 minutes. The inorganic phosphate in the mixture was determined by measuring the absorbance at 650 nm in a 96-well microplate reader (BioRad 680). The results from the samples were reported with reference to the control. Three independent experiments were carried out for each compound concentration.

MRSA strain USA300#757 = assay: Fractional Inhibitory Concentration Index (FICI) determination; type: cell-based, S. aureus
Experimental: The bacterial strains used in this study were clinically isolated MRSA strains USA300#757 and #2960 which were obtained from our laboratory. Determination of the Fractional Inhibitory Concentration Index (FICI) was adopted by the Müller-Hinton broth (MHB) dilution method as previously described. Twelve serial two-fold dilutions of PC190723, F332 and F361 were prepared in the 96-well microplate with concentration ranging from 512 to 0.25 μg/mL. […] Lastly, the compounds and the β-lactams were mixed at a 1:1 ratio and subjected to two-fold dilution as described previously. Each microplate well contained 100 μL of MHB supplemented with compounds alone, β-lactams alone or the mixture of compounds and β-lactams. Overnight cultures of S. aureus in the Müller-Hinton broth was diluted to OD595 of 0.08-0.1 in saline and added in each of the microplate well. The plates were incubated at 37° C. for 20 h. All tests were performed in duplicate and the inhibition of bacterial growth was determined by visualization. The FICI of compounds and β-lactams were calculated as followed: FICI=(MIC of combination of compound and β-lactam/MIC of compound alone)+(MIC of combination of compound and β-lactam/MIC of β-lactam alone).

S. aureus FtsZ [3] = biological target: T1, S. aureus FtsZ; assay: Light scattering assay (FtsZ polymerization); type: biochemical; settings: S. aureus FtsZ 12 μM, 1 mM GTP, serial dilutions of compound
Experimental: Light scattering assay was used to determine the degree of FtsZ polymerization by measuring the 90° light scattering signal using a fluorescence spectrometer (Perkin-Elmer, USA). The excitation and emission wavelengths were set to 600 nm with a slit width of 5 nm. S. aureus FtsZ (12 μM) was incubated with serial dilutions of the compounds in 50 mM MOPS buffer (pH 6.8) at 25° C. for 10 minutes. The control contained 1% DMSO only. KCl (final concentration: 50 mM) and MgCl2 (final concentration: 10 mM) were then added to the mixture. The mixture was incubated at 37° C. for 8 minutes in order to establish a baseline. A final concentration of 1 mM GTP was added and the light scattering signal was measured for 1,500 seconds. The relative light scattering signals in experimental set-up were calculated with reference to the light scattering signal in control experiment. Three independent experiments were carried out for each compound concentration.

Row | SMILES | FtsZ polymer morphology (TEM) (S. aureus FtsZ [1]) | effect on GTPase activity of S. aureus FtsZ (S. aureus FtsZ [2]) | FICI with Ampicillin (MRSA strain USA300#757) | FICI with Cefotaxime (MRSA strain USA300#757) | FICI with Cefuroxime (MRSA strain USA300#757) | FICI with Cloxacillin (MRSA strain USA300#757) | FICI with Meropenem (MRSA strain USA300#757) | effect on light scattering signal of FtsZ assembly (polymerization) (S. aureus FtsZ [3])
1 | CCCCCCCCCNc1ccc(F)c(C(N)=O)c1F [Compound F332, 2,6-difluoro-3-(nonylamino)benzamide] | relatively short and straight single strand FtsZ protofilaments | no significant change of the GTPase activity | 0.52 | 0.13 | 0.09 | 1.02 | 1.06 | inhibit the light scattering of FtsZ assembly
2 | CCCCCCCCCN(C)c1ccc(F)c(C(N)=O)c1F [Compound F361, 2,6-difluoro-3-(methyl(nonyl)amino)benzamide] | relatively short and straight single strand FtsZ protofilaments | no significant change of the GTPase activity | – | 0.38 | – | – | 1.13 | inhibit the light scattering of FtsZ assembly
